Measurements: US8153808B2, “Dihydropyridone amides as P2X7 modulators” (Roche Palo Alto LLC, priority 2008, dated 2012)

Target: T1, P2X7 (UniProt Q99572)
T1 sequence (Q99572 1-595): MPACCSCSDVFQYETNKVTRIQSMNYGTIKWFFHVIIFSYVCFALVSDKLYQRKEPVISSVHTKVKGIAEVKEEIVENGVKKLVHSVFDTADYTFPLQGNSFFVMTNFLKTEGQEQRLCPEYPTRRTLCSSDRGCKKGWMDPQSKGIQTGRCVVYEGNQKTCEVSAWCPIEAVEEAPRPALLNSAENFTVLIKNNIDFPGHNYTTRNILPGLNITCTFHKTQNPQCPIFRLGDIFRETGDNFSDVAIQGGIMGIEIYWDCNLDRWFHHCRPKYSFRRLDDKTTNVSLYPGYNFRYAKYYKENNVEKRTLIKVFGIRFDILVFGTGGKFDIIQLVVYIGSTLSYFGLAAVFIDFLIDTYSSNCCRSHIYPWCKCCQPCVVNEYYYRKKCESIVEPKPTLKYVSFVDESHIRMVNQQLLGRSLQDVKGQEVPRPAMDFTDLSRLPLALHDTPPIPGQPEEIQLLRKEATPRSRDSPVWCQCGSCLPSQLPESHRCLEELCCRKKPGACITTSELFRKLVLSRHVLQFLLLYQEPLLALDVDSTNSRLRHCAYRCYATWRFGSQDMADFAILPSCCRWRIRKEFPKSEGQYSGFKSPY
Test: pIC50 values for P2X7 (Table 1)
Type: cell-based
Procedure: Intracellular Calcium Flux (FLIPR) Assay
Stock solutions of compounds were prepared from powders as a 10 mM DMSO stock solution. These solutions were stored at RT during the two week period of these experiments to prevent freeze-thaw of the DMSO stocks. The DMSO stocks were added to the appropriate assay buffer at a concentration of 10 μM, and then diluted serially to the final concentrations that were tested. […] The aqueous solutions of compounds as well as ATP (Sigma A7699) and BzATP (Sigma B6396) were prepared fresh for each day of experiment.
1321N1 cells stably expressing the full length human P2X7 gene (1321N1-hP2X7) and HEK293 cells stably expressing the full length rat P2X7 gene (HEK293-rP2X7) were obtained from the Roche Cell Culture Facility. 1321N1-hP2X7 cells were grown in Dulbecco's Modified Eagle's Medium (DMEM) high glucose supplemented with 10% FBS and 250 μg/mL G418. HEK293-rP2X7 cells were grown in DMEM/F-12 supplemented with 10% FBS, 1 mM CaCl2, 2 mM MgCl2, 2 mM L-Glutamine and 500 μg/ml G418. Cells were split such that they never became >70% confluent.
On the day prior to the experiment, 1321N1-hP2X7 or HEK293-rP2X7 cells were released into suspension with calcium-free PBS+Versene and washed by centrifugation with calcium-free PBS to remove the Versene. Cells were resuspended in growth medium at a density of 2.5×10^5 cells/mL and seeded into black walled, clear bottom 96 well plates (50,000 cells/well) approximately 18 hr prior to intracellular calcium flux experiments.
On the day of the experiment, plates were washed with FLIPR buffer (calcium- and magnesium-free Hank's Balanced Salt Solution (HBSS) supplemented with 10 mM Hepes, 2.5 mM probenecid and 2 mM calcium chloride) using a BIO-TEK 96 channel plate washer and incubated with […] fluo-3 dye at 37° C. for one hr. The dye was then removed by plate washing and the cells were allowed to equilibrate for 20 min at room temperature with antagonist or vehicle (FLIPR buffer). Agonist (100 μM BzATP final concentration for hP2X7; 5 μM BzATP final concentration or rP2X7) was added online with the FLIPR and fluorescence measurements made at 1 sec intervals for 60 sec followed by 3 sec intervals for a further 4 min (5 min total). A final addition of 5 μM ionomycin was made and the maximal BzATP-evoked fluorescence normalized to the maximal ionomycin-evoked fluorescence.

Row | pIC50 P2X7 | Structure (SMILES)
1 | 7.94 | COc1cc(Br)c(CC(=O)N2C=CC(=O)C[C@H]2c2cccc(F)c2)cc1OC [Compound 41, (S)-1-[2-(2-Bromo-4,5-dimethoxy-phenyl)-acetyl]-2-(3-fluoro-phenyl)-2,3-dihydro-1H-pyridin-4-one]
2 | 5.995 | COc1ccc(OC)c(CC(=O)N2C=CC(=O)CC2c2ccc(F)cc2)c1 (stereo not shown) [Compound 42, 1-[2-(2,5-Dimethoxy-phenyl)-acetyl]-2-(4-fluoro-phenyl)-2,3-dihydro-1H-pyridin-4-one]
3 | 7.89 | COCCOc1cc(CC(=O)N2C=CC(=O)C[C@H]2c2ccc(F)cc2)c(Br)cc1F [Compound 43, (S)-1-{2-[2-Bromo-4-fluoro-5-(2-methoxy-ethoxy)-phenyl]-acetyl}-2-(4-fluoro-phenyl)-2,3-dihydro-1H-pyridin-4-one]
4 | 6.003 | COc1ccc(CC(=O)N2C=CC(=O)C[C@H]2c2ccc(F)cc2)cc1OC [Compound 44, (S)-1-[2-(3,4-Dimethoxy-phenyl)-acetyl]-2-(4-fluoro-phenyl)-2,3-dihydro-1H-pyridin-4-one]
5 | 6.006 | COc1ccc(CC(=O)N2C=CC(=O)C[C@H]2c2cccc(F)c2)cc1OC [Compound 45, (S)-1-[2-(3,4-Dimethoxy-phenyl)-acetyl]-2-(3-fluoro-phenyl)-2,3-dihydro-1H-pyridin-4-one]
6 | 7.31 | O=C1C=CN(C(=O)Cc2cc(OCCO)c(F)cc2Br)[C@H](c2ccc(F)cc2)C1 [Compound 46, (S)-1-{2-[2-Bromo-4-fluoro-5-(2-hydroxy-ethoxy)-phenyl]-acetyl}-2-(4-fluoro-phenyl)-2,3-dihydro-1H-pyridin-4-one]
7 | 6.4 | COc1cc(F)c(CC(=O)N2C=CC(=O)C[C@H]2c2ccc(F)cc2)cc1OC [Compound 47, (S)-1-[2-(2-Fluoro-4,5-dimethoxy-phenyl)-acetyl]-2-(4-fluoro-phenyl)-2,3-dihydro-1H-pyridin-4-one]
8 | 6.55 | COc1cc(F)c(CC(=O)N2C=CC(=O)C[C@H]2c2cccc(F)c2)cc1OC [Compound 48, (S)-1-[2-(2-Fluoro-4,5-dimethoxy-phenyl)-acetyl]-2-(3-fluoro-phenyl)-2,3-dihydro-1H-pyridin-4-one]
9 | 7.12 | Cc1cc(F)c(OCCO)cc1CC(=O)N1C=CC(=O)C[C@H]1c1ccc(F)cc1 [Compound 49, (S)-1-{2-[4-Fluoro-5-(2-hydroxy-ethoxy)-2-methyl-phenyl]-acetyl}-2-(4-fluoro-phenyl)-2,3-dihydro-1H-pyridin-4-one]
10 | 7.65 | O=C1C=CN(C(=O)Cc2cc(OCCO)c(F)cc2Br)[C@H](c2cccc(F)c2)C1 [Compound 50, (S)-1-{2-[2-Bromo-4-fluoro-5-(2-hydroxy-ethoxy)-phenyl]-acetyl}-2-(3-fluoro-phenyl)-2,3-dihydro-1H-pyridin-4-one]
11 | 7.77 | COc1cc(Cl)c(CC(=O)N2C=CC(=O)C[C@H]2c2ccc(F)cc2)cc1OC [Compound 51, (S)-1-[2-(2-Chloro-4,5-dimethoxy-phenyl)-acetyl]-2-(4-fluoro-phenyl)-2,3-dihydro-1H-pyridin-4-one]

Second part, the compound before the results:

Row | Structure (SMILES) | pIC50 P2X7
12 | Cc1cc(Br)c(CC(=O)N2C=CC(=O)CC2c2ccc(F)cc2)cc1O (stereo not shown) [Compound 33, 1-[2-(2-Bromo-5-hydroxy-4-methyl-phenyl)-acetyl]-2-(4-fluoro-phenyl)-2,3-dihydro-1H-pyridin-4-one] | 6.18
13 | COc1cc(Br)c(CC(=O)N2C=CC(=O)CC2CC2CCCCC2)cc1OC (stereo not shown) [Compound 34, 1-[2-(2-Bromo-4,5-dimethoxy-phenyl)-acetyl]-2-cyclohexylmethyl-2,3-dihydro-1H-pyridin-4-one] | 5.94
14 | COc1cc(Br)c(CC(=O)N2C=CC(=O)CC2c2cccc(F)c2)cc1OC (stereo not shown) [Compound 35, 1-[2-(2-Bromo-4,5-dimethoxy-phenyl)-acetyl]-2-(3-fluoro-phenyl)-2,3-dihydro-1H-pyridin-4-one] | 6.815
15 | COc1cc(CC(=O)N2C=CC(=O)C[C@H]2c2ccc(F)cc2)c(Br)cc1F [Compound 36, (S)-1-[2-(2-Bromo-4-fluoro-5-methoxy-phenyl)-acetyl]-2-(4-fluoro-phenyl)-2,3-dihydro-1H-pyridin-4-one] | 7.55
16 | COc1cc(Br)c(CC(=O)N2C=CC(=O)CC2c2cccc(C)c2)cc1OC (stereo not shown) [Compound 37, 1-[2-(2-Bromo-4,5-dimethoxy-phenyl)-acetyl]-2-m-tolyl-2,3-dihydro-1H-pyridin-4-one] | 6.425
17 | COc1cc(Br)c(CC(=O)N2C=CC(=O)CC2c2ccc(C)cc2)cc1OC (stereo not shown) [Compound 38, 1-[2-(2-Bromo-4,5-dimethoxy-phenyl)-acetyl]-2-p-tolyl-2,3-dihydro-1H-pyridin-4-one] | 5.325
18 | COc1cc(Br)c(CC(=O)N2C=CC(=O)CC2c2cccc(C#N)c2)cc1OC (stereo not shown) [Compound 39, 3-{1-[2-(2-Bromo-4,5-dimethoxy-phenyl)-acetyl]-4-oxo-1,2,3,4-tetrahydro-pyridin-2-yl}-benzonitrile] | 5.45
19 | COc1ccc(CC(=O)N2C=CC(=O)CC2c2ccc(F)cc2)c(OC)c1 (stereo not shown) [Compound 40, 1-[2-(2,4-Dimethoxy-phenyl)-acetyl]-2-(4-fluoro-phenyl)-2,3-dihydro-1H-pyridin-4-one] | 5.843
